In brackets after ≈: the same amount, converted by molar mass.
Legend:
PC-3 = assay: Anticancer activity against human PC3 cells after 72 to 102 hrs by MTT assay; format: functional, cell-based
LNCaP = assay: Anticancer activity against human LNCAP cells after 72 to 102 hrs by MTT assay; format: functional, cell-based
Trypanosoma cruzi [1] = assay: Anti-parasitic activity against amastigote form of Trypanosoma cruzi after 24 hrs; format: functional, organism-based
Trypanosoma cruzi [2] = assay: Anti-parasitic activity against Trypanosoma cruzi; format: functional, organism-based
HCT-116 = assay: Anticancer activity against human HCT116 cells by MTT assay; format: functional, cell-based
HL-60 [3] = assay: Anticancer activity against human HL60 cells by MTT assay; format: functional, cell-based
SF-295 [4] = assay: Anticancer activity against human SF295 cells by MTT assay; format: functional, cell-based
OVCAR-8 = assay: Anticancer activity against human OVCAR8 cells by MTT assay; format: functional, cell-based
KB = assay: Cytotoxicity against human KB cells assessed as reduction in cell viability after 48 hrs by MTT assay; format: functional, cell-based
Vero = assay: Cytotoxicity against African green monkey Vero cells assessed as reduction in cell viability after 48 hrs by MTT assay; format: cell-based; details: Chlorocebus sabaeus
HeLa = assay: Cytotoxicity against human HeLa cells assessed as reduction in cell viability after 48 hrs by MTT assay; format: functional, cell-based
HepG2 = assay: Cytotoxicity against human HepG2 cells assessed as reduction in cell viability after 48 hrs by MTT assay; format: functional, cell-based; details: HepG2, 48 h
L02 = assay: Cytotoxicity against human LO2 cells assessed as reduction in cell viability after 48 hrs by MTT assay; format: functional, cell-based; details: L02, 48 h
Trypanosoma cruzi [5] = assay: Trypanocidal activity against Trypanosoma cruzi Y strain bloodstream trypomastigotes isolated from infected Swiss mouse after 24 hrs by Neubauer chamber method; format: functional, organism-based
Trypanosoma cruzi [6] = assay: Anti-parasitic activity against trypomastigotes form of Trypanosoma cruzi after 24 hrs; format: functional, organism-based
Trypanosoma cruzi [7] = assay: Trypanocidal activity against Trypanosoma cruzi Y strain bloodstream trypomastigotes isolated from infected Swiss mouse infected with monkey LLC-MK2 cells after 5 days by fluorescence spectrophotometric analysis; format: functional, organism-based; details: LLC-MK2, 120 h
[8] = Selectivity index, ratio of CC50 for monkey LLC-MK2 cells to IC50 for Trypanosoma cruzi Y strain bloodstream trypomastigotes; format: toxicity; details: read-out: Ratio IC50
[9] = tested on: Mycobacterium tuberculosis; assay: Antimycobacterial activity against Mycobacterium tuberculosis H37Rv; format: functional
HL-60 [10] = assay: Anticancer activity against human HL60 cells; format: functional, cell-based
Trypanosoma cruzi [11] = assay: Trypanocidal activity against Trypanosoma cruzi Y strain bloodstream trypomastigotes after 24 hrs; format: functional, organism-based
HCT-8 = assay: Cytotoxicity against human HCT8 cells assessed as reduction in cell viability after 72 hrs by MTT assay; format: functional, cell-based; details: HCT-8, 72 h
Hs-578T [12] = assay: Cytotoxicity against human Hs 578T cells assessed as reduction in cell viability after 72 hrs by MTT assay; format: functional, cell-based
NCI-H358 = assay: Cytotoxicity against human NCI-H358 cells assessed as reduction in cell viability after 72 hrs by MTT assay; format: functional, cell-based; details: NCI-H358, 72 h
SF-295 [13] = assay: Cytotoxicity against human SF295 cells assessed as reduction in cell viability after 72 hrs by MTT assay; format: functional, cell-based; details: SF-295, 72 h
SW-620 = assay: Cytotoxicity against human SW620 cells assessed as reduction in cell viability after 72 hrs by MTT assay; format: functional, cell-based; details: SW-620, 72 h
MCF7 = assay: Anticancer activity against human MCF7 cells; format: functional, cell-based
Hs-578T [14] = assay: Cytotoxicity against human Hs578T cells assessed as reduction in cell viability after 72 hrs by MTT assay; format: functional, cell-based
MDA-MB-435 = assay: Cytotoxicity against human MDA-MB-435 cells assessed as reduction in cell viability after 72 hrs by MTT assay; format: functional, cell-based; details: MDA-MB-435, 72 h
HL-60 [15] = assay: Cytotoxicity against human HL60 cells assessed as reduction in cell viability after 72 hrs by MTT assay; format: functional, cell-based; details: HL-60, 72 h

O=C1c2ccccc2C(=O)c2oc(-c3cccc(Cl)c3)nc21
IC50 (PC-3): 80 nM
IC50 (LNCaP): 30 nM

CC1(C)CCc2c(c3ccccc3c3nc4c5cccnc5c5ncccc5c4nc23)O1
IC50 (Trypanosoma cruzi [1]): 4900 nM

Nc1c(I)ccc2c1C(=O)C=CC2=O
IC50 (Trypanosoma cruzi [2]): 600 nM

O=C1C(Br)=C(Br)C(=O)c2c(I)cccc21
IC50 (Trypanosoma cruzi [2]): 1400 nM

CC1(C)O[C@H]2O[C@H](COC3C4=C(OC3(C)C)c3ccccc3C(=O)C4=O)[C@@H](OCc3ccccc3)[C@H]2O1 (stereo not given in full)
IC50 (HCT-116): 510 nM
IC50 (HL-60 [3]): 160 nM
IC50 (SF-295 [4]): 340 nM
IC50 (OVCAR-8): 890 nM

O=C1C(=O)c2ccccc2C2=C1CCCO2
IC50 (KB): 3200 nM
IC50 (LNCaP): 2760 nM
IC50 (Vero): 1000 nM
IC50 (HeLa): 900 nM
IC50 (HepG2): 900 nM

O=C1C(=O)c2ccccc2C2=C1C1(C(=O)Nc3ccc(Cl)cc31)N1NN=NC1=N2 (stereo not given)
IC50 (HepG2): 2900 to 36300 nM
IC50 (L02): 2900 to 36300 nM

O=C1C(=O)c2ccccc2C2=C1C1(C(=O)Nc3ccc(Br)cc31)N1NN=NC1=N2 (stereo not given)
IC50 (HepG2): 2900 to 36300 nM
IC50 (L02): 2900 to 36300 nM

CCOC(=O)/C=C/c1cccc2c1C(=O)C=CC2=O
IC50 (Trypanosoma cruzi [5]): 63400 nM

O=C1C=CC(=O)c2c(Sc3ccc(Br)cc3)cccc21
IC50 (Trypanosoma cruzi [6]): 6600 nM

Cc1ccc2c(c1)C1(C(=O)N2)C2=C(N=C3N=NNN31)c1ccccc1C(=O)C2=O (stereo not given)
IC50 (HepG2): 2900 to 36300 nM
IC50 (L02): 2900 to 36300 nM

O=C1C(=O)c2ccccc2C2=C1C1(C(=O)Nc3cc(Cl)ccc31)N1NN=NC1=N2 (stereo not given)
IC50 (HepG2): 2900 to 36300 nM
IC50 (L02): 2900 to 36300 nM

COc1ccc2c(c1)NC(=O)C21C2=C(N=C3N=NNN31)c1ccccc1C(=O)C2=O (stereo not given)
IC50 (HepG2): 2900 to 36300 nM
IC50 (L02): 2900 to 36300 nM

CCCCCCCCCCC1CC2=C(O1)c1ccccc1C(=O)C2=O (stereo not given)
IC50 (Trypanosoma cruzi [7]): 46800 nM
selectivity ratio [8]: 36.3

O=C1C(=O)c2ccccc2C2=C1C1(C(=O)Nc3c(Br)cccc31)N1NN=NC1=N2 (stereo not given)
IC50 (HepG2): 2900 to 36300 nM
IC50 (L02): 2900 to 36300 nM

O=C1C(=O)c2ccccc2C2=C1C1(C(=O)Nc3c(Cl)cccc31)N1NN=NC1=N2 (stereo not given)
IC50 (HepG2): 2900 to 36300 nM
IC50 (L02): 2900 to 36300 nM

CC1(C)CCC2=C(O1)c1ccccc1C(=O)C2=O [LAPACHONE]
MIC [9]: 100 µg/mL (≈ 413 µM)

COc1ccc(NC2CC(C)(C)OC3=C2C(=O)c2ccccc2C3=O)cc1 (stereo not given)
IC50 (HL-60 [10]): 70 nM

COc1ccc(I)c2c1C(=O)C=C(C)C2=O
IC50 (Trypanosoma cruzi [11]): 7570 nM

COc1ccc(Sc2cccc3c2C(=O)C=CC3=O)cc1
IC50 (Trypanosoma cruzi [6]): 7600 nM

CC1(C)O[C@@H]2O[C@@H](COC3C4=C(OC3(C)C)c3ccccc3C(=O)C4=O)[C@H]3OC(C)(C)O[C@H]3[C@@H]2O1 (stereo not given in full)
IC50 (HCT-116): 350 nM
IC50 (HL-60 [3]): 230 nM
IC50 (SF-295 [4]): 230 nM
IC50 (OVCAR-8): 700 nM

COc1cccc2c1C(=O)c1c(O)c3c(c(O)c1C2=O)C[C@@](O)(C(=O)CO)C[C@@H]3O[C@H]1C[C@H](N)[C@H](O)[C@H](C)O1 [DOXORUBICIN]
IC50 (HCT-8): 30 nM
IC50 (Hs-578T [12]): 830 nM
IC50 (NCI-H358): 900 nM
IC50 (SF-295 [13]): 30 to 880 nM
IC50 (SW-620): 770 nM
IC50 (MCF7): 360 nM
IC50 (Hs-578T [14]): 750 nM
IC50 (MDA-MB-435): 30 to 880 nM

O=C1C(=O)c2c(O)cccc2C2=C1CCC(c1ccccc1)O2 (stereo not given)
IC50 (HCT-8): 1300 nM
IC50 (SF-295 [13]): 1300 nM
IC50 (HL-60 [15]): 1300 nM
IC50 (MDA-MB-435): 1300 nM

Cc1ccc(Sc2cccc3c2C(=O)C=CC3=O)cc1
IC50 (Trypanosoma cruzi [6]): 2500 nM

O=C1C(=O)c2ccccc2C2=C1C1(C(=O)Nc3cc(Br)ccc31)N1NN=NC1=N2 (stereo not given)
IC50 (HepG2): 2900 to 36300 nM
IC50 (L02): 2900 to 36300 nM

— ChEMBL document CHEMBL4406812, “Synthesis of quinones with highlighted biological applications: A critical update on the strategies towards bioactive compounds with emphasis on lapachones” (Eur J Med Chem, 2019)
